Results taken from patent US20220226342A1, “COMPOSITIONS AND METHODS OF TREATING LIVER CANCERS” (The Johns Hopkins University, priority 2019, published 2022).

Assays:
[1] = test system: global protein synthesis in 6 HCC PDOs; test: OP-Puro incorporation assay (EZClick Global Protein Synthesis Assay); assay type: cell-based, human
Excerpt: FIG. 3A-3H. Mechanism of Omacetaxine action on different HCC patient derived organoids lines. (3A). […] (3B). […] (3C) The mean fluorescence intensity ratio reflected protein synthesis rate of the plots data in (a). (3D-3H).

HCC 35 = test: IC50 in PDO line; assay type: cell-based; details: Homo sapiens
Protocol: (§1) The inventors tested omacetaxine at decreasing concentrations (10 μM, 1 μM, 100 nM, 10 nM and 1 nM) to calculate the half-maximal inhibitory concentration (IC50). […] The IC50 value for each of the 40 HCC PDO lines can be found in Table 2.

HCC 37 = test: IC50 in PDO line; assay type: cell-based; details: Homo sapiens
Protocol: as §1

HCC 67-2 = test: IC50 in PDO line; assay type: cell-based; details: Homo sapiens
Protocol: as §1

HCC 24 = test: IC50 in PDO line; assay type: cell-based; details: Homo sapiens
Protocol: as §1

HCC 71-1 = test: IC50 in PDO line; assay type: cell-based; details: Homo sapiens
Protocol: as §1

HCC 80-1 = test: IC50 in PDO line; assay type: cell-based; details: Homo sapiens
Protocol: as §1

HCC71-3 = test: IC50 in PDO line; assay type: cell-based; details: Homo sapiens
Protocol: as §1

HCC 30 = test: IC50 in PDO line; assay type: cell-based; details: Homo sapiens
Protocol: as §1

HCC 25-2 = test: IC50 in PDO line; assay type: cell-based; details: Homo sapiens
Protocol: as §1

HCC 26-3 = test: IC50 in PDO line; assay type: cell-based; details: Homo sapiens
Protocol: as §1

HCC 83-3 = test: IC50 in PDO line; assay type: cell-based; details: Homo sapiens
Protocol: as §1

HCC 80-3 = test: IC50 in PDO line; assay type: cell-based; details: Homo sapiens
Protocol: as §1

HCC 26-6 = test: IC50 in PDO line; assay type: cell-based; details: Homo sapiens
Protocol: as §1

HCC 25-1 = test: IC50 in PDO line; assay type: cell-based; details: Homo sapiens
Protocol: as §1

HCC 57 = test: IC50 in PDO line; assay type: cell-based; details: Homo sapiens
Protocol: as §1

HCC 26-5 = test: IC50 in PDO line; assay type: cell-based; details: Homo sapiens
Protocol: as §1

HCC 26-2 = test: IC50 in PDO line; assay type: cell-based; details: Homo sapiens
Protocol: as §1

HCC 65-3 = test: IC50 in PDO line; assay type: cell-based; details: Homo sapiens
Protocol: as §1

HCC 67-1 = test: IC50 in PDO line; assay type: cell-based; details: Homo sapiens
Protocol: as §1

HCC 50 = test: IC50 in PDO line; assay type: cell-based; details: Homo sapiens
Protocol: as §1

HCC 77 = test: IC50 in PDO line; assay type: cell-based; details: Homo sapiens
Protocol: as §1

HCC 83-2 = test: IC50 in PDO line; assay type: cell-based; details: Homo sapiens
Protocol: as §1

HCC 36-3 = test: IC50 in PDO line; assay type: cell-based; details: Homo sapiens
Protocol: as §1

HCC 26-4 = test: IC50 in PDO line; assay type: cell-based; details: Homo sapiens
Protocol: as §1

HCC 25-3 = test: IC50 in PDO line; assay type: cell-based; details: Homo sapiens
Protocol: as §1

HCC 40 = test: IC50 in PDO line; assay type: cell-based; details: Homo sapiens
Protocol: as §1

HCC 83-1 = test: IC50 in PDO line; assay type: cell-based; details: Homo sapiens
Protocol: as §1

HCC 80-5 = test: IC50 in PDO line; assay type: cell-based; details: Homo sapiens
Protocol: as §1

HCC 59 = test: IC50 in PDO line; assay type: cell-based; details: Homo sapiens
Protocol: as §1

HCC 71-2 = test: IC50 in PDO line; assay type: cell-based; details: Homo sapiens
Protocol: as §1

HCC 71-4 = test: IC50 in PDO line; assay type: cell-based; details: Homo sapiens
Protocol: as §1

HCC 34-3 = test: IC50 in PDO line; assay type: cell-based; details: Homo sapiens
Protocol: as §1

HCC 26-8 = test: IC50 in PDO line; assay type: cell-based; details: Homo sapiens
Protocol: as §1

HCC 80-2 = test: IC50 in PDO line; assay type: cell-based; details: Homo sapiens
Protocol: as §1

HCC 76 = test: IC50 in PDO line; assay type: cell-based; details: Homo sapiens
Protocol: as §1

HCC 67-3 = test: IC50 in PDO line; assay type: cell-based; details: Homo sapiens
Protocol: as §1

40 HCC PDO lines = test: 10 μM drug screening, cell viability at 96 h (CellTiter-Glo); assay type: cell-based, human
Protocol: FIG. 2A-2E. 10 μM drug screening and IC50 calculation across 40 PDOs from 20 HCC patients. (2A). 10 μM drug screening of omacetaxine and sorafenib, regorafenib, lenvatinib and cabozantinib on 40 PDOs derived from 20 HCC patients. X axis—the 40 PDO lines, Y axis—Cell viability. (2B). IC50 curve of 40 PDO lines, x-axis—omacetaxine dose, Y axis—Relative cell viability. (2C). […] (2D). IC50 distribution of 40 HCC PDOs. X axis—PDO lines, Y axis—IC50 number of omacetaxine for each PDO.
As readout of drug effectiveness, cell viability at 96 hours (h) was measured. White light microscopy images of one of the HCC PDO lines across 129 drugs was prepared. In FIG. 2E, each panel represents the image collected at 96 hours after treatment with each drug, at a concentration of 10 μM. […] To quantify survival, we implemented CellTiter-Glo, a luminescent cell viability assay. A total of 129 readings (one for each drug) was obtained for each of the 40 PDO lines, for a total of […] data points. […] Next, the inventors contrasted the survival of the […] HCC PDO lines when treated with omacetaxine versus current FDA approved drugs for HCC.

COC(=O)C[C@](O)(CCCC(C)(C)O)C(=O)O[C@@H]1C(OC)=C[C@]23CCCN2CCc2cc4c(cc2[C@H]13)OCO4 [omacetaxine, omacetaxine mepusuccinate]
global protein synthesis ([1]; 150 nM and 700 nM, 6 HCC PDOs, 36 h): drastically inhibited global protein synthesis
protein synthesis inhibition at 700 nM compared with 150 nM ([1]; 700 nM vs 150 nM): did not induce any further inhibition of protein synthesis
IC50 (HCC 35): 0.0131 µM
IC50 (HCC 37): 0.00352 µM
IC50 (HCC 67-2): 0.0128 µM
IC50 (HCC 24): 0.148 µM
IC50 (HCC 71-1): 0.00729 µM
IC50 (HCC 80-1): 0.0801 µM
IC50 (HCC71-3): 0.00151 µM
IC50 (HCC 30): 0.0506 µM
IC50 (HCC 25-2): 0.0117 µM
IC50 (HCC 26-3): 0.0278 µM
IC50 (HCC 83-3): 0.00885 µM
IC50 (HCC 80-3): 0.0157 µM
IC50 (HCC 26-6): 0.0808 µM
IC50 (HCC 25-1): 0.0374 µM
IC50 (HCC 57): 0.0141 µM
IC50 (HCC 26-5): 0.0667 µM
IC50 (HCC 26-2): 0.118 µM
IC50 (HCC 65-3): 0.00226 µM
IC50 (HCC 67-1): 0.00403 µM
IC50 (HCC 50): 0.0298 µM
IC50 (HCC 77): 0.0461 µM
IC50 (HCC 83-2): 0.0192 µM
IC50 (HCC 36-3): 0.0807 µM
IC50 (HCC 26-4): 0.0335 µM
IC50 (HCC 25-3): 0.0602 µM
IC50 (HCC 40): 0.0158 µM
IC50 (HCC 83-1): 0.0177 µM
IC50 (HCC 80-5): 0.0276 µM
IC50 (HCC 59): 0.0212 µM
IC50 (HCC 71-2): 0.00205 µM
IC50 (HCC 71-4): 0.00998 µM
IC50 (HCC 34-3): 0.0377 µM
IC50 (HCC 26-8): 0.0378 µM
IC50 (HCC 80-2): 0.044 µM
IC50 (HCC 76): 0.0355 µM
IC50 (HCC 67-3): 0.00167 µM
survival of HCC PDO lines versus FDA approved HCC drugs (sorafenib, lenvatinib, regorafenib, cabozantinib) (40 HCC PDO lines): significantly more effective than first line HCC drugs (sorafenib and lenvatinib) and second line HCC drugs (regorafenib and cabozantinib
effectiveness in screen (growth inhibited by ≥50%) (40 HCC PDO lines; 96 h): effective across all 40 HCC PDO lines
average HCC PDO survival (40 HCC PDO lines; 96 h, across all 40 HCC PDO lines): 4.2%
